In patent publication US12466821B2 (Novartis AG, priority 2018, dated 2025):
Where two headings read alike, the source gives them in different places.

Tests used:
[1] = test system: Luciferase-encoding HCMV, AD169 strain; experiment: CMV Luciferase assay (cellular herpesvirus replication); type: cell-based
Outline: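 Neonatal human dermal fibroblasts were pretreated 1 h with compound (final 0.0159–50 μM or 0.00318–10 μM, 0.5% DMSO), then infected at MOI 1 with AD169 carrying pp28-promoter luciferase. After 72 h at 37 °C, Renilla-Glo luminescence normalized to no-virus and virus-only controls; EC50 by 4-parameter logistic model.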

[2] = biological target: human HSV DNA polymerase UL30 (Human herpesvirus 1 (strain 17) (HHV-1) (Human herpes simplex virus 1), UniProt P04293); experiment: HSV polymerase biochemical assay (molecular beacon-based)
Outline: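 Readout was beacon fluorescence (ex 480, em 535 nm), used to derive IC50. Each dNTP was at 1.25 uM, with 200 nM primer and 100 nM beacon, after a 30-min RT inhibitor preincubation. Enzyme was 625 pM for HSV UL30 (20 min RT reaction) or 100 pM for CMV UL54 (60 min RT), both sf9-expressed MBP fusions, in pH 7.5 Tris buffer with MgCl2.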

N#Cc1ccc(CNC(=O)c2ccc3n(c2=O)CCN(CC2(S(=O)(=O)C4CC4)CC2)C3=O)cc1 [Example 1, N-(4-cyanobenzyl)-2-((1-(cyclopropylsulfonyl)cyclopropyl)methyl)-1,6-dioxo-2,3,4,6-tetrahydro-1H-pyrido[1,2-a]pyrazine-7-carboxamide]
EC50 ([1]; Human betaherpesvirus 5, AD169, read-out: CMV-Luc Cellular EC50): 23.2 nM | EC50 ([1]; Human betaherpesvirus 5, AD169, read-out: EC50 Human herpesvirus CMV): 24 nM | IC50 [2]: 27.3 nM
